Results as given in the supplement of paper PMC10307832.

Legend:
Experiment in all cases: relative viability (nuclei count vs DMSO), 5 days (fraction); higher = more cells survive
[1] = compound: Cc1ccc2nc(NCCN)c3ncc(C)n3c2c1 + CC(=O)c1c(C)c2cnc(Nc3ccc(N4CCNCC4)cn3)nc2n(C2CCCC2)c1=O [Palbociclib] (partner 0.5 µM)
How it was run: (§1)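 Relative viability was taken as the ratio of nuclei in treated wells to nuclei in vehicle wells. Lung cancer cell lines in 1536-well plates received compounds by pin tool one day after seeding, either one drug alone or a fixed anchor-drug dose plus five library-drug doses (not always all listed) in √10 steps. Nuclei were counted on 4× images after 5 days of treatment, and values are medians of duplicate plates.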

[2] = compound: Cc1ccc2nc(NCCN)c3ncc(C)n3c2c1 + C[C@@H](Oc1cc(-c2cnn(C3CCNCC3)c2)cnc1N)c1c(Cl)ccc(F)c1Cl [Crizotinib] (partner 1 µM)
How it was run: as §1

Salubrinal + Bortezomib = compound: O=C(/C=C/c1ccccc1)NC(NC(=S)Nc1cccc2cccnc12)C(Cl)(Cl)Cl [Salubrinal] + CC(C)C[C@H](NC(=O)[C@H](Cc1ccccc1)NC(=O)c1cnccn1)B(O)O [Bortezomib] (partner 0.002 µM)
How it was run: as §1

Salubrinal + Vorinostat = compound: O=C(/C=C/c1ccccc1)NC(NC(=S)Nc1cccc2cccnc12)C(Cl)(Cl)Cl [Salubrinal] + O=C(CCCCCCC(=O)Nc1ccccc1)NO [Vorinostat] (partner 1 µM)
How it was run: as §1

NCI-H3122 was tested, and the relative viability ([1]; first compound 0.04 µM) was 0.167, the relative viability ([1]; first compound 0.1265 µM) was 0.193 and the relative viability ([1]; first compound 0.4 µM) was 0.163. It also gave a relative viability ([1]; first compound 1.265 µM) of 0.199, a relative viability ([1]; first compound 4 µM) of 0.213 and a relative viability ([2]; first compound 0.04 µM) of 0.291. It also gave a relative viability ([2]; first compound 0.1265 µM) of 0.304, a relative viability ([2]; first compound 0.4 µM) of 0.293 and a relative viability ([2]; first compound 1.265 µM) of 0.286. For the same cell line, the relative viability ([2]; first compound 4 µM) was 0.318, the relative viability (Salubrinal + Bortezomib; first compound 0.08 µM) was 1 and the relative viability (Salubrinal + Bortezomib; first compound 0.253 µM) was 1.01. For the same cell line, the relative viability (Salubrinal + Bortezomib; first compound 0.8 µM) was 0.927, the relative viability (Salubrinal + Bortezomib; first compound 2.53 µM) was 0.98 and the relative viability (Salubrinal + Bortezomib; first compound 8 µM) was 0.991. It also gave a relative viability (Salubrinal + Vorinostat; first compound 0.08 µM) of 1.16, a relative viability (Salubrinal + Vorinostat; first compound 0.253 µM) of 1 and a relative viability (Salubrinal + Vorinostat; first compound 0.8 µM) of 0.989. For the same cell line, the relative viability (Salubrinal + Vorinostat; first compound 2.53 µM) was 1.05 and the relative viability (Salubrinal + Vorinostat; first compound 8 µM) was 1.09.

With PC-3 [JPC-3] the relative viability ([1]; first compound 0.04 µM) was 0.56, the relative viability ([1]; first compound 0.1265 µM) was 0.56 and the relative viability ([1]; first compound 0.4 µM) was 0.552. For the same cell line, the relative viability ([1]; first compound 1.265 µM) was 0.513, the relative viability ([1]; first compound 4 µM) was 0.512 and the relative viability ([2]; first compound 0.04 µM) was 0.973. It also gave a relative viability ([2]; first compound 0.1265 µM) of 0.992, a relative viability ([2]; first compound 0.4 µM) of 0.974 and a relative viability ([2]; first compound 1.265 µM) of 0.947. The relative viability ([2]; first compound 4 µM) was 0.966, the relative viability (Salubrinal + Bortezomib; first compound 0.08 µM) was 0.775 and the relative viability (Salubrinal + Bortezomib; first compound 0.253 µM) was 0.718. It also gave a relative viability (Salubrinal + Bortezomib; first compound 0.8 µM) of 0.89, a relative viability (Salubrinal + Bortezomib; first compound 2.53 µM) of 0.863 and a relative viability (Salubrinal + Bortezomib; first compound 8 µM) of 0.75. The relative viability (Salubrinal + Vorinostat; first compound 0.08 µM) was 0.713, the relative viability (Salubrinal + Vorinostat; first compound 0.253 µM) was 0.71 and the relative viability (Salubrinal + Vorinostat; first compound 0.8 µM) was 1.07. For the same cell line, the relative viability (Salubrinal + Vorinostat; first compound 2.53 µM) was 0.934 and the relative viability (Salubrinal + Vorinostat; first compound 8 µM) was 0.762.

PC-14 was tested, and the relative viability ([1]; first compound 0.04 µM) was 0.447, the relative viability ([1]; first compound 0.1265 µM) was 0.488 and the relative viability ([1]; first compound 0.4 µM) was 0.475. For the same cell line, the relative viability ([1]; first compound 1.265 µM) was 0.386, the relative viability ([1]; first compound 4 µM) was 0.244 and the relative viability ([2]; first compound 0.04 µM) was 1.08. The relative viability ([2]; first compound 0.1265 µM) was 0.862, the relative viability ([2]; first compound 0.4 µM) was 0.864 and the relative viability ([2]; first compound 1.265 µM) was 0.901. It also gave a relative viability ([2]; first compound 4 µM) of 0.892, a relative viability (Salubrinal + Bortezomib; first compound 0.08 µM) of 0.94 and a relative viability (Salubrinal + Bortezomib; first compound 0.253 µM) of 0.639. For the same cell line, the relative viability (Salubrinal + Bortezomib; first compound 0.8 µM) was 0.979, the relative viability (Salubrinal + Bortezomib; first compound 2.53 µM) was 1 and the relative viability (Salubrinal + Bortezomib; first compound 8 µM) was 0.874. For the same cell line, the relative viability (Salubrinal + Vorinostat; first compound 0.08 µM) was 0.719, the relative viability (Salubrinal + Vorinostat; first compound 0.253 µM) was 0.585 and the relative viability (Salubrinal + Vorinostat; first compound 0.8 µM) was 0.672. The relative viability (Salubrinal + Vorinostat; first compound 2.53 µM) was 0.645 and the relative viability (Salubrinal + Vorinostat; first compound 8 µM) was 0.5.

RERF-LC-KJ gave a relative viability ([1]; first compound 0.04 µM) of 0.969, a relative viability ([1]; first compound 0.1265 µM) of 1 and a relative viability ([1]; first compound 0.4 µM) of 1.14. The relative viability ([1]; first compound 1.265 µM) was 1.08, the relative viability ([1]; first compound 4 µM) was 0.881 and the relative viability ([2]; first compound 0.04 µM) was 0.829. The relative viability ([2]; first compound 0.1265 µM) was 0.791, the relative viability ([2]; first compound 0.4 µM) was 0.777 and the relative viability ([2]; first compound 1.265 µM) was 0.722. For the same cell line, the relative viability ([2]; first compound 4 µM) was 0.789, the relative viability (Salubrinal + Bortezomib; first compound 0.08 µM) was 1.29 and the relative viability (Salubrinal + Bortezomib; first compound 0.253 µM) was 0.984. For the same cell line, the relative viability (Salubrinal + Bortezomib; first compound 0.8 µM) was 1.24, the relative viability (Salubrinal + Bortezomib; first compound 2.53 µM) was 1.03 and the relative viability (Salubrinal + Bortezomib; first compound 8 µM) was 1.15. It also gave a relative viability (Salubrinal + Vorinostat; first compound 0.08 µM) of 0.784, a relative viability (Salubrinal + Vorinostat; first compound 0.253 µM) of 0.642 and a relative viability (Salubrinal + Vorinostat; first compound 0.8 µM) of 0.745. The relative viability (Salubrinal + Vorinostat; first compound 2.53 µM) was 0.673 and the relative viability (Salubrinal + Vorinostat; first compound 8 µM) was 0.721.

SK-LU-1 was tested, and the relative viability ([1]; first compound 0.04 µM) was 0.412, the relative viability ([1]; first compound 0.1265 µM) was 0.383 and the relative viability ([1]; first compound 0.4 µM) was 0.385. The relative viability ([1]; first compound 1.265 µM) was 0.393, the relative viability ([1]; first compound 4 µM) was 0.38 and the relative viability ([2]; first compound 0.04 µM) was 0.926. For the same cell line, the relative viability ([2]; first compound 0.1265 µM) was 0.937, the relative viability ([2]; first compound 0.4 µM) was 1.01 and the relative viability ([2]; first compound 1.265 µM) was 0.852. For the same cell line, the relative viability ([2]; first compound 4 µM) was 0.83, the relative viability (Salubrinal + Bortezomib; first compound 0.08 µM) was 1 and the relative viability (Salubrinal + Bortezomib; first compound 0.253 µM) was 1.07. It also gave a relative viability (Salubrinal + Bortezomib; first compound 0.8 µM) of 1.63, a relative viability (Salubrinal + Bortezomib; first compound 2.53 µM) of 1.21 and a relative viability (Salubrinal + Bortezomib; first compound 8 µM) of 0.941. It also gave a relative viability (Salubrinal + Vorinostat; first compound 0.08 µM) of 0.754, a relative viability (Salubrinal + Vorinostat; first compound 0.253 µM) of 0.668 and a relative viability (Salubrinal + Vorinostat; first compound 0.8 µM) of 0.996. It also gave a relative viability (Salubrinal + Vorinostat; first compound 2.53 µM) of 0.779 and a relative viability (Salubrinal + Vorinostat; first compound 8 µM) of 0.664.

In the case of SW 1573, the relative viability ([1]; first compound 0.04 µM) is reported as 0.396, the relative viability ([1]; first compound 0.1265 µM) is reported as 0.461 and the relative viability ([1]; first compound 0.4 µM) is reported as 0.399. For the same cell line, the relative viability ([1]; first compound 1.265 µM) was 0.428, the relative viability ([1]; first compound 4 µM) was 0.134 and the relative viability ([2]; first compound 0.04 µM) was 0.924. It also gave a relative viability ([2]; first compound 0.1265 µM) of 0.792, a relative viability ([2]; first compound 0.4 µM) of 0.704 and a relative viability ([2]; first compound 1.265 µM) of 0.895. For the same cell line, the relative viability ([2]; first compound 4 µM) was 0.659, the relative viability (Salubrinal + Bortezomib; first compound 0.08 µM) was 1.36 and the relative viability (Salubrinal + Bortezomib; first compound 0.253 µM) was 0.779. It also gave a relative viability (Salubrinal + Bortezomib; first compound 0.8 µM) of 1.27, a relative viability (Salubrinal + Bortezomib; first compound 2.53 µM) of 0.834 and a relative viability (Salubrinal + Bortezomib; first compound 8 µM) of 0.982. For the same cell line, the relative viability (Salubrinal + Vorinostat; first compound 0.08 µM) was 0.852, the relative viability (Salubrinal + Vorinostat; first compound 0.253 µM) was 0.686 and the relative viability (Salubrinal + Vorinostat; first compound 0.8 µM) was 0.778. It also gave a relative viability (Salubrinal + Vorinostat; first compound 2.53 µM) of 0.55 and a relative viability (Salubrinal + Vorinostat; first compound 8 µM) of 0.62.
